Reference: patent US20020049223A1, “Quinoline and naphthyridine carboxylic acid antibacterials” (priority 1999, published 2002)
Where a name gives a salt, the structure may show the parent alone.

Key:
[1] = system: Staphylococcus aureus ATCC 6538P; assay: Assay A: in vitro antibacterial activity, agar dilution MIC; assay type: cell-based; conditions: Table 1, Assay A, BHI agar, 35-37° C., about 20 to 24 hours; code A = Staphylococcus aureus ATCC 6538P; unit assumed
Procedure: (§1) Assay A. Determination of Biological Activity In Vitro Assay of Antibacterial Activity
(§2) Representative compounds of the invention were assayed in vitro for antibacterial activity. Twelve petri dishes containing successive aqueous dilutions of the test compound mixed with sterilized Brain Heart Infusion (BHI) agar (Difco 0418-01-5) (10 mL) were prepared. Each plate was inoculated with 1:100 (or 1:10 for slow-growing strains, such as Micrococcus and Streptococcus) dilutions of up to 32 different microorganisms using a Steers replicator block. The inoculated plates were incubated at 35-37° C. for about 20 to about 24 hours. In addition, a control plate with BHI agar and no test compound was prepared and incubated at the beginning and end of each test.
(§3) An additional plate containing a compound having known susceptibility patterns for the organisms being tested and belonging to the same antibiotic class as the test compound was also prepared and incubated as a further control and to provide test-to-test comparability. Ciprofloxacin was used for this purpose.
(§4) After incubation, each plate was visually inspected. The minimum inhibitory concentration (MIC) was defined as the lowest concentration of drug yielding no growth, a slight haze, or sparsely isolated colonies on the inoculum spot as compared to the growth control.

[2] = system: Escherichia coli JUHL; assay: as above; assay type: cell-based; conditions: Table 1, Assay A, BHI agar, 35-37° C., about 20 to 24 hours; code D = Escherichia coli JUHL; unit assumed
Procedure: as §1, §2, §3, §4

[3] = system: Streptococcus pneumoniae ATCC 6303; assay: as above; assay type: cell-based; conditions: Table 1, Assay A, BHI agar, 35-37° C., about 20 to 24 hours; code F = Streptococcus pneumoniae ATCC 6303; unit assumed
Procedure: as §1, §2, §3, §4

[4] = system: Enterococcus faecalis PIU 1967; assay: as above; assay type: cell-based; conditions: Table 1, Assay A, BHI agar, 35-37° C., about 20 to 24 hours; code B = Enterococcus faecalis PIU 1967; unit assumed
Procedure: as §1, §2, §3, §4

[5] = system: Moraxella catarrahalis 2604; assay: as above; assay type: cell-based; conditions: Table 1, Assay A, BHI agar, 35-37° C., about 20 to 24 hours; code C = Moraxella catarrahalis 2604; unit assumed
Procedure: as §1, §2, §3, §4

[6] = system: Haemophilus influenzae DILL AMP R; assay: as above; assay type: cell-based; conditions: Table 1, Assay A, BHI agar, 35-37° C., about 20 to 24 hours; code E = Haemophilus influenzae DILL AMP R; unit assumed
Procedure: as §1, §2, §3, §4

[7] = system: Staphylococcus aureus ATCC 6538P; assay: Assay B: in vitro antibacterial activity, broth microdilution MIC (NCCLS); assay type: cell-based; conditions: Table 2, Assay B, cation-adjusted Mueller Hinton broth, 35° C., 16 to 20 hr; code A = Staphylococcus aureus ATCC 6538P; unit assumed
Method in brief: (§5)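 MIC is the lowest concentration with no visible growth after serial two-fold dilution in cation-adjusted Mueller Hinton broth, approximately 5×10^5 CFU/mL inoculum, 16-20 h at 35 °C in air (NCCLS). Broth for H. influenzae gets 5 g/L yeast extract, 0.3 mmol/L hematin and 15 mg/L NAD, for S. pneumoniae 3% lysed horse blood; both incubated 20-24 h.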

[8] = system: Escherichia coli JUHL; assay: as above; assay type: cell-based; conditions: Table 2, Assay B, cation-adjusted Mueller Hinton broth, 35° C., 16 to 20 hr; code D = Escherichia coli JUHL; unit assumed
Method in brief: as §5

[9] = system: Streptococcus pneumoniae ATCC 6303; assay: as above; assay type: cell-based; conditions: Table 2, Assay B, Mueller Hinton broth with 3% lysed horse blood, 20 to 24 hr; code F = Streptococcus pneumoniae ATCC 6303; unit assumed
Method in brief: as §5

[10] = system: Enterococcus faecalis PIU 1967; assay: as above; assay type: cell-based; conditions: Table 2, Assay B, cation-adjusted Mueller Hinton broth, 35° C., 16 to 20 hr; code B = Enterococcus faecalis PIU 1967; unit assumed
Method in brief: as §5

[11] = system: Haemophilus influenzae DILL AMP R; assay: as above; assay type: cell-based; conditions: Table 2, Assay B, Mueller Hinton broth with yeast extract, hematin and NAD, 20 to 24 hr; code E = Haemophilus influenzae DILL AMP R; unit assumed
Method in brief: as §5

| Compound | melting point | Antibacterial Activity (MIC's), A [1] | Antibacterial Activity (MIC's), D [2] | Antibacterial Activity (MIC's), F [3] | Antibacterial Activity (MIC's), B [4] | Antibacterial Activity (MIC's), C [5] | Antibacterial Activity (MIC's), E [6] | Antibacterial Activity (MIC's), A [7] | Antibacterial Activity (MIC's), D [8] | Antibacterial Activity (MIC's), F [9] | Antibacterial Activity (MIC's), B [10] | Antibacterial Activity (MIC's), E [11] |
| --- | --- | --- | --- | --- | --- | --- | --- | --- | --- | --- | --- | --- |
| COc1c(-c2cc3c(s2)CCC/C3=N\OCc2ccccn2)ccc2c(=O)c(C(=O)O)cn(C3CC3)c12 (as salt: hydrochloride) [Example 183, 1-cyclopropyl-8-methoxy-4-oxo-7-((4E)-4-((2-pyridinylmethoxy)imino)-4,5,6,7-tetrahydro-1-benzothien-2-yl)-1,4-dihydro-3-quinolinecarboxylic acid] | 178 to 179 °C |  |  |  |  |  |  |  |  |  |  |  |
| Br.CC1Cc2sc(-c3ccc4c(=O)c(C(=O)O)cn(C5CC5)c4c3)cc2CN1 (centres unmarked) [Example 13, 1-cyclopropyl-7-(6-methyl-4,5,6,7-tetrahydrothieno[3,2-c]pyridin-2-yl)-4-oxo-1,4-dihydro-3-quinolinecarboxylic acid hydrobromide] |  | 0.1 µg/mL | 0.2 µg/mL | 0.25 µg/mL | 0.2 µg/mL | 0.2 µg/mL | 0.25 µg/mL |  |  |  |  |  |
| Br.CC1(C)CNCc2cc(-c3ccc4c(=O)c(C(=O)O)cn(C5CC5)c4c3OC(F)F)sc21 [Example 28] |  | 0.2 µg/mL | 0.78 µg/mL | 1 µg/mL | 0.78 µg/mL | 0.2 µg/mL | 0.25 µg/mL |  |  |  |  |  |
| CC1CNCc2sc(-c3ccc4c(=O)c(C(=O)O)cn(C5CC5)c4n3)cc21.Cl (centres unmarked) [Example 32, 1-cyclopropyl-7-(4-methyl-4,5,6,7-tetrahydrothieno(2,3-c)pyrdin-2-yl)-4-oxo-1,4-dihydro[1,8]naphthyridine-3-carboxylic acid hydrochloride] |  | 0.2 µg/mL | 0.39 µg/mL | 1 µg/mL | 0.39 µg/mL | 0.2 µg/mL | 0.25 µg/mL |  |  |  |  |  |
| O=C(O)c1cn(C2CC2)c2nc(-c3cc4c(s3)CCCC4O)c(F)cc2c1=O (centres unmarked) [Example 35, 1-cyclopropyl-6-fluoro-7-(4-hydroxy-4,5,6,7-tetrahydro-1-benzothien-2-yl)-4-oxo-1,4-dihydro[1,8]naphthyridine-3-carboxylic acid] |  | 0.05 µg/mL | 0.78 µg/mL | 0.5 µg/mL | 0.78 µg/mL | 0.05 µg/mL | 0.06 µg/mL |  |  |  |  |  |
| COc1c(-c2cc3c(s2)SCCC3N)ccc2c(=O)c(C(=O)O)cn(C3CC3)c12.Cl (centres unmarked) [Example 37, 7-(4-amino-5,6-dihydro-4H-thieno[2,3-b]thiopyran-2-yl)-1-cyclopropyl-8-methoxy-4-oxo-1,4-dihydro-3-quinolinecarboxylic acid hydrochloride] |  | 0.05 µg/mL | 0.2 µg/mL | 0.25 µg/mL | 0.1 µg/mL | 0.1 µg/mL | 0.125 µg/mL |  |  |  |  |  |
| COc1c(-c2cc3c(s2)CCCC3O)ccc2c(=O)c(C(=O)O)cn(C3CC3)c12 (centres unmarked) [Example 38, 1-cyclopropyl-7-(4-hydroxy-4,5,6,7-tetrahydro-1-benzothien-2-yl)-8-methoxy-4-oxo-1,4-dihydro-3-quinolinecarboxylic acid] | 237 to 239 °C |  |  |  |  |  |  |  |  |  |  |  |
| COc1c(-c2cc3c(s2)C(O)CCC3)ccc2c(=O)c(C(=O)O)cn(C3CC3)c12 (centres unmarked) [Example 41, 1-cyclopropyl-7-(7-hydroxy-4,5,6,7-tetrahydro-1-benzothien-2-yl)-8-methoxy-4-oxo-1,4-dihydro-3-quinolinecarboxylic acid] | 238 to 240 °C |  |  |  |  |  |  |  |  |  |  |  |
| COc1c(-c2cc3c(s2)CCC(CO)=C3)ccc2c(=O)c(C(=O)O)cn(C3CC3)c12 [Example 44, 1-cyclopropyl-7-(5-(hydroxymethyl)-6,7-dihydro-1-benzothien-2-yl)-8-methoxy-4-oxo-1,4-dihydro-3-quinolinecarboxylic acid] | 205 to 206 °C |  |  |  |  |  |  |  |  |  |  |  |
| COc1c(-c2cc3c(s2)CC(O)C3)ccc2c(=O)c(C(=O)O)cn(C3CC3)c12 (centres unmarked) [Example 45, 1-cyclopropyl-7-(5-hydroxy-5,6-dihydro-4H-cyclopentarblthien-2-yl)-8-methoxM-4-oxo-1,4-dihydro-3-quinolinecarboxylic acid] |  | 0.05 µg/mL | 0.39 µg/mL | 0.25 µg/mL | 0.2 µg/mL | 0.1 µg/mL | 0.03 µg/mL |  |  |  |  |  |
| COc1c(-c2cc3c(s2)CC(O)CC3)ccc2c(=O)c(C(=O)O)cn(C3CC3)c12 (centres unmarked) [Example 47, 1-cyclopropyl-7-(6-hydroxy-4,5,6,7-tetrahydro-1-benzothien-2-yl)-8-methoxy-4-oxo-1,4-dihydro-3-quinolinecarboxylic acid] |  | 0.01 µg/mL | 1.56 µg/mL | 0.5 µg/mL | 0.2 µg/mL | 0.02 µg/mL | 0.5 µg/mL |  |  |  |  |  |
| COc1c(-c2cc3c(s2)CCCC3=O)ccc2c(=O)c(C(=O)O)cn(C3CC3)c12 [Example 50, 1-cyclopropyl-8-methoxy-4-oxo-7-(4-oxo-4,5,6,7-tetrahydro-1-benzothien-2-yl)-1,4-dihydro-3-quinolinecarboxylic acid] | 266 to 267 °C |  |  |  |  |  |  |  |  |  |  |  |
| COc1c(-c2cc3c(s2)C(N)CCC3)ccc2c(=O)c(C(=O)O)cn(C3CC3)c12.Cl (centres unmarked) [Example 201, 7-(7-amino-4,5,6,7-tetrahydro-1-benzothien-2-yl)-1-cyclopropyl-8-methoxy-4-oxo-1,4-dihydro-3-quinolinecarboxylic acid hydrochloride] | 174 to 178 °C |  |  |  |  |  |  | 0.015 µg/mL | 0.125 µg/mL | 0.03 µg/mL | 0.06 µg/mL | 0.03 µg/mL |
| COc1c(-c2cc3c(s2)CCC(C)(C)C3O)ccc2c(=O)c(C(=O)O)cn(C3CC3)c12 (centres unmarked) [Example 213, 1-cyclopropyl-7-(4-hydroxy-5,5-dimethyl-4,5,6,7-tetrahydro-1-benzothien-2-yl)-8-methoxy-4-oxo-1,4-dihydro-3-quinolinecarboxylic acid] | 93 to 94 °C |  |  |  |  |  |  | 0.03 µg/mL | 0.5 µg/mL | 0.5 µg/mL | 0.5 µg/mL | 0.25 µg/mL |
| COc1c(-c2cc3c(s2)C(N)CCC3)c(F)cc2c(=O)c(C(=O)O)cn(C3CC3)c12.Cl (centres unmarked) [Example 228, 7-(7-amino-4,5,6,7-tetrahydro-1-benzothien-2-yl)-1-cyclopropyl-6-fluoro-8-methoxy-4-oxo-1,4-dihydro-3-quinolinecarboxylic acid hydrochloride] | 148 to 153 °C (dec.) |  |  |  |  |  |  | 0.008 µg/mL | 0.06 µg/mL | 0.015 µg/mL | 0.03 µg/mL | 0.015 µg/mL |
| COc1c(-c2cc3c(s2)CCC(C)(C)/C3=N\O)ccc2c(=O)c(C(=O)O)cn(C3CC3)c12 [Example 233, 1-cyclopropyl-7-((4E/Z)-4-(hydroxyimino)-5,5-dimethyl-4,5,6,7-tetrahydro-1-benzothien-2-yl)-8-methoxy-4-oxo-1,4-dihydro-3-quinolinecarboxylic acid] | 135 to 138 °C |  |  |  |  |  |  | 0.03 µg/mL | 8 µg/mL | 2 µg/mL | 0.5 µg/mL | 0.5 µg/mL |
